According to US9150837B2, “Polyethylene glycolated superoxide dismutase mimetics” (Galera Therapeutics, LLC, priority 2004, dated 2015):

System: carrageenan-induced hyperalgesia
Settings: 0.1 mg/kg, s.c.
Procedure: Male Sprague-Dawley rats (175-200 g, Harlan Sprague Dawley, Indianapolis, Ind., USA) were housed and cared for in accordance with the guidelines of the Institutional Animal Care and Use Committee and in accordance with NIH guidelines on laboratory animal welfare. Rats received a subplantar injection of carrageenan (0.1 ml of a 1% suspension in 0.85% saline) into the right hind paw. A hyperalgesic response to heat was determined in the animals by Hargreaves' method (Hargreaves et al., 1988). Rats were individually confined and acclimated to Plexiglas chambers for 30 min. A mobile unit consisting of a high intensity projector bulb was positioned to deliver a thermal stimulus directly to an individual hind paw from beneath the chamber. The withdrawal latency period of injected and contralateral paws was determined to the nearest 0.1 sec with an electronic clock circuit and thermocouple. […] Each point will represent the change in withdrawal latency compared with control measurements taken prior to carrageenan injection.

**Q.** CN1CC[C@]23c4c5ccc(O)c4O[C@H]2[C@@H](O)C=C[C@H]3[C@H]1C5 [morphine] was tested. Which inhibition of hyperalgesia did it give?
**A.** The inhibition of hyperalgesia was “modest inhibition of hyperalgesia”.
